In patent US10653688B2, “6-(6-membered heteroaryl and aryl)isoquinolin-3-yl carboxamides and preparation and use thereof” (Samumed, LLC, priority 2017, dated 2020) one finds EC50 and inhibition data, which are given here for twelve compounds.

Where two headings read alike, the source gives them in different places. Where only a bound is given, the exact number is not on record here.

Assay [1] concerns Wnt activity (SW480 colon carcinoma cells stably expressing the Sp5-Luc reporter gene). The assay can be described thus: Wnt activity screening assay (Sp5-Luc reporter gene assay). Format: cell-based, human. Conditions: for EC50: 36 to 48 hours; for inhibition at 10 µM: read-out: percent inhibition at 10 μM (given for EC50 >10 μM), 10 μM. The source says: The screening assay for Wnt activity is described as follows. Reporter cell lines can be generated by stably transducing cancer cell lines (e.g., colon cancer) or primary cells (e.g., IEC-6 intestinal cells) with a lentiviral construct that includes a Wnt-responsive promoter driving expression of the firefly luciferase gene.
SW480 colon carcinoma cells were transduced with a lentiviral vector expressing luciferase with a human Sp5 promoter consisting of a sequence of eight TCF/LEF binding sites. SW480 cells stably expressing the Sp5-Luc reporter gene and a hygromycin resistance gene were selected by treatment with 150 μg/mL of hygromycin for 7 days. These stably transduced SW480 cells were expanded in cell culture and used for all further screening activities. […] For Sp5-Luc reporter gene assays, the cells were plated at 4,000 cells/well in 384-well plates with a DMEM medium containing 1% fetal bovine serum, and 1% Penicillin-Streptomycin and incubated for 36 to 48 hours at 37° C. and 5% CO2. Following incubation, 15 μl of BriteLite Plus luminescence reagent (Perkin Elmer) was added to each well of the 384-well assay plates. The plates were placed on an orbital shaker for 2 min and then luminescence was quantified using the Envision (Perkin Elmer) plate reader. Readings were normalized to DMSO only treated cells, and normalized activities were utilized for EC50 calculations using the dose-response log (inhibitor) vs. response-variable slope (four parameters) nonlinear regression feature available in GraphPad Prism 5.0 (or Dotmatics).
(In general: Reporter assays use an easily measured gene product as a stand-in for the process of interest.)

Assay [2] deals with IL-6 in human peripheral blood mononuclear cells (huPBMCs). The assay can be described thus: IL-6 inhibition in LPS-stimulated human peripheral blood mononuclear cells (HTRF). The following applies: for EC50: LPS 50 ng/mL, 22 hours, IL-6 HTRF; for inhibition at 10 µM: read-out: percent inhibition at 10 μM (given for EC50 >10 μM), LPS, IL-6, 10 μM. Format: cell-based. Here is the method: Human Peripheral Blood Mononuclear Cells:
Fresh Normal PB MNC (Catalog # PB001, AllCells, Alameda, Calif.) were shipped overnight at 4° C. and resuspended in Roswell Park Memorial Institute (RPMI) 1640 Medium, with GlutaMAX Supplement (Catalog #61870127, ThermoFisher Scientific, Waltham, Mass.) supplemented with 1% Penicillin-Streptomycin (Catalog #15140163, ThermoFisher Scientific, Waltham, Mass.) and 1% fetal bovine serum (FBS) (Catalog #16140089, ThermoFisher Scientific, Waltham, Mass.) assay media.
Fresh normal human peripheral blood mononuclear cells (huPBMCs) were resuspended in 1% FBS-RPMI assay media with 1% Penicillin-Streptomycin 1% to a cell concentration of 1×10e6 cells/mL. […] 50 ng/mL of Lipopolysaccharides from Escherichia coli 0111:B4 (Catalog # L5293-2ML, Sigma-Aldrich, St. Louis, Mo.) was added after 2 hours and cells were incubated for another 22 hours at 37° C.-5% CO2. After 22 hour incubation, a mixture of anti-IL6 XL665 and anti-IL-6 Cryptate diluted in reconstitution buffer (Catalog #62IL6PEC, Cisbio Inc., Bedford, Mass.) was added to each well. Following incubation for 3 hours at room temperature, Homogeneous Time-Resolved Fluorescence (HTRF) was measured using the Envision (Perkin Elmer, Shelton, Conn.) at 665 nm and […]. The ratio of fluorescence at 665 nm to 620 nm was used as a readout for IL-6 quantification. All samples were processed in duplicate. Readings were normalized to DMSO treated cells and normalized activities were utilized for EC50 calculations. EC50 was determined using software generated by Dotmatics Limited (Windhill Bishops Stortford Herts, UK) using the Levenberg-Marquardt 4 parameter fitting procedure with finite different gradients.
In general terms: In TR-FRET formats the signal depends on donor and acceptor labels being close together.

Assay [3] addresses recombinant DYRK1A kinase (Homo sapiens (Human), UniProt Q13627). As to the kind of experiment: DYRK1A kinase assay (Ser/Thr 18 peptide Z-lyte, FRET).
In assay [4] the test system is SW480 colon carcinoma cells. As to the kind of experiment: Cell viability assay (CellTiter-Glo). The class given is cell-based, human. The following applies: four days, CellTiter-Glo. Here is the method:
SW480 colon carcinoma cells were transduced with a lentiviral vector expressing luciferase with a human Sp5 promoter consisting of a sequence of eight TCF/LEF binding sites. SW480 cells stably expressing the Sp5-Luc reporter gene and a hygromycin resistance gene were selected by treatment with 150 μg/mL of hygromycin for 7 days. These stably transduced SW480 cells were expanded in cell culture and used for all further screening activities.
For the Cell Viability Assays, the cells were plated at 2,000 cells/well in 384-well plates with a DMEM medium containing 1% fetal bovine serum, and 1% Penicillin-Streptomycin and incubated for […] at 37° C. and 5% CO2. Eight replicates of DMSO-treated cells served as controls and cells treated with compound were performed in duplicate.
After incubation, 10 μL of CellTiter-Glo (Promega) was added to each well allowed to incubate for approximately 12 minutes. This reagent “results in cell lysis and generation of a luminescent signal proportional to the amount of ATP present. The amount of ATP is directly proportional to the number of cells present in culture, in agreement with previous reports. The CellTiter-Glo Assay generates a “glow-type” luminescent signal, produced by the luciferase reaction (Promega.com)”.
On the technique in general: ATP-based viability assays read luminescence as a measure of living cells.

The target in assay [5] is recombinant GSK3β kinase (Homo sapiens (Human), UniProt P49841). The assay can be described thus: GSK3β kinase assay (Ser/Thr 09 peptide Z-lyte, FRET).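 Also: FRET read-out as coumarin over fluorescein emission ratio, compounds incubated one hour at room temperature, IC50 from dose-response curve fit.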 The class given is biochemical.
Sequence of recombinant GSK3β kinase (P49841 whole entry): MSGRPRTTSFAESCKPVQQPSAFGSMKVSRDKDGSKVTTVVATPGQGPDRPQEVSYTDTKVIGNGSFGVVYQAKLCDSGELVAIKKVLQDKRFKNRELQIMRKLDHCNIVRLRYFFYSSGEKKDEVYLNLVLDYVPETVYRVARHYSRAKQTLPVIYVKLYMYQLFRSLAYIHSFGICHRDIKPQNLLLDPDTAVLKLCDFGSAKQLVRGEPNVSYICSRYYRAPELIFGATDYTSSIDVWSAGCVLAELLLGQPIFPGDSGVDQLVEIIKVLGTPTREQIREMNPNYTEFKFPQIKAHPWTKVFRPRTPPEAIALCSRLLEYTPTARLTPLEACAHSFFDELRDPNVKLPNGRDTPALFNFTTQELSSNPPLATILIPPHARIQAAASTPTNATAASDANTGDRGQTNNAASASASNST
Assay [6] deals with LL29 cells (primary human fibroblasts derived from IPF patients), α-smooth muscle actin. The assay can be described thus: Inhibition of fibrotic process: TGF-β1-treated primary human fibroblasts, αSMA staining.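 As to all read-outs here: controls were TGF-β1-stimulated wells with DMSO vehicle as the positive reference and cells given DMSO alone as the negative reference.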 The class given is cell-based. Conditions: for EC50: TGF-β1 20 ng/mL, 4 days, % cells positive for αSMA; for inhibition at 10 µM: read-out: percent inhibition at 10 μM (given for EC50 >10 μM), TGF-β1, αSMA, 10 μM.

[7] abbreviates: DYRK1A kinase, head says EC50, method says IC50, ATP 30 μM.
Where [8] appears, read: GSK3β kinase, head says EC50, method says IC50, ATP 46 μM.

As to `CN1CCN(c2cc(C(=O)Nc3cc4cc(-c5ccncc5)ccc4cn3)ccn2)CC1` [Compound 5, 2-(4-Methylpiperazin-1-yl)-N-(6-(pyridin-4-yl)isoquinolin-3-yl) isonicotinamide], the EC50 in assay [1] (Homo sapiens) was greater than 10000 nM; in assay [2] (Homo sapiens, PBMC), greater than 10000 nM; in assay [3] it was 18 nM; in assay [4] (Homo sapiens, 96 h), 9460 nM; in assay [5], greater than 10000 nM; in assay [6] (Homo sapiens, Fibroblast, 96 h), 2450 nM. Besides, the inhibition at 10 µM in assay [1] (Homo sapiens) came out at 38.5%; in assay [2] (Homo sapiens, PBMC) it was 4.1%.

With `CC(C)n1cc(C(=O)Nc2cc3cc(-c4cncc(NC5CCN(C)CC5)n4)ccc3cn2)cn1` [Compound 139, 1-Isopropyl-N-(6-(6-((1-methylpiperidin-4-yl)amino)pyrazin-2-yl)isoquinolin-3-yl)-1H-pyrazole-4-carboxamide], the EC50 in assay [1] (Homo sapiens) is 32 nM; in assay [2] (Homo sapiens, PBMC) it was 361 nM; in assay [3] (setting [7]) it was 2 nM; in assay [4] (Homo sapiens, 96 h), 52 nM; in assay [5] (setting [8]), greater than 10000 nM; in assay [6] (Homo sapiens, Fibroblast, 96 h), 148 nM.

Turning to `CN1CCN(c2cc(C(=O)Nc3cc4cc(-c5cncc(Cl)c5)ccc4cn3)ccn2)CC1` [Compound 25, N-(6-(5-Chloropyridin-3-yl)isoquinolin-3-yl)-2-(4-methylpiperazin-1-yl) isonicotinamide], the concentration for a half-maximal effect (EC50) in assay [1] (Homo sapiens) was greater than 10000 nM; in assay [2] (Homo sapiens, PBMC), greater than 10000 nM; in assay [3] (setting [7]), greater than 10000 nM; in assay [4] (Homo sapiens, 96 h) it was 8870 nM; in assay [5] (setting [8]), greater than 10000 nM; in assay [6] (Homo sapiens, Fibroblast, 96 h), greater than 10000 nM. For the same compound, the inhibition at 10 µM in assay [1] (Homo sapiens) was determined as 8.9%; in assay [2] (Homo sapiens, PBMC) it was 4.6%; in assay [6] (Homo sapiens, Fibroblast), 44.8%.

On to `CC(C)Nc1cncc(-c2ccc3cnc(NC(=O)C4CNC4)cc3c2)n1` [Compound 86, N-(6-(6-(Isopropylamino)pyrazin-2-yl)isoquinolin-3-yl)azetidine-3-carboxamide], for which the half-maximal effective concentration (EC50) in assay [1] (Homo sapiens) turned out to be 1620 nM; in assay [2] (Homo sapiens, PBMC), 1130 nM; in assay [3], 1 nM; in assay [4] (Homo sapiens, 96 h), 3420 nM; in assay [5], 17 nM; in assay [6] (Homo sapiens, Fibroblast, 96 h), 204 nM.

Take `O=C(Nc1cc2cc(-c3cncc(NC4CCNCC4)n3)ccc2cn1)C1CCCC1` [Compound 107, N-(6-(6-(Piperidin-4-ylamino)pyrazin-2-yl)isoquinolin-3-yl) cyclopentanecarboxamide]: the 50% effective concentration (EC50) in assay [1] (Homo sapiens) amounted to 266 nM; in assay [2] (Homo sapiens, PBMC) it was 119 nM; in assay [3] (setting [7]) it was 1 nM; in assay [4] (Homo sapiens, 96 h), 5910 nM; in assay [5] (setting [8]), 31 nM; in assay [6] (Homo sapiens, Fibroblast, 96 h), 1270 nM.

As to `CN1CC=C(c2cc(C(=O)Nc3cc4cc(-c5cncc(NC(C)(C)C)n5)ccc4cn3)ccn2)CC1` [Compound 99, N-(6-(6-(tert-Butylamino)pyrazin-2-yl)isoquinolin-3-yl)-1′-methyl-1′,2′,3′,6′-tetrahydro-[2,4′-bipyridine]-4-carboxamide], the EC50 in assay [1] (Homo sapiens) amounted to 18 nM; in assay [2] (Homo sapiens, PBMC), 125 nM; in assay [3] (setting [7]) it was 4 nM; in assay [4] (Homo sapiens, 96 h), 43 nM; in assay [5] (setting [8]), 748 nM; in assay [6] (Homo sapiens, Fibroblast, 96 h), 31 nM.

Regarding `CNc1cncc(-c2ccc3cnc(NC(=O)c4ccnc(N5CCN(C)CC5)c4)cc3c2)n1` [Compound 85, N-(6-(6-(Methylamino)pyrazin-2-yl)isoquinolin-3-yl)-2-(4-methylpiperazin-1-yl)isonicotinamide], the EC50 was 757 nM in assay [1] (Homo sapiens); 6710 nM in assay [2] (Homo sapiens, PBMC); 2 nM in assay [3] (setting [7]); 2460 nM in assay [4] (Homo sapiens, 96 h); greater than 10000 nM in assay [5] (setting [8]); 1850 nM in assay [6] (Homo sapiens, Fibroblast, 96 h).

As to `CC(C)Nc1cncc(-c2ccc3cnc(NC(=O)C4CCNCC4)cc3c2)n1` [Compound 87, N-(6-(6-(Isopropylamino)pyrazin-2-yl)isoquinolin-3-yl)piperidine-4-carboxamide], the EC50 in assay [1] (Homo sapiens) worked out at 201 nM; in assay [2] (Homo sapiens, PBMC) it was 377 nM; in assay [3] (setting [7]), 1 nM; in assay [4] (Homo sapiens, 96 h), 758 nM; in assay [5] (setting [8]), 38 nM; in assay [6] (Homo sapiens, Fibroblast, 96 h), 1920 nM.

Turning to `O=C(Nc1cc2cc(-c3cncc(F)c3)ccc2cn1)c1coc(C2CCNCC2)n1` [Compound 141, N-(6-(5-Fluoropyridin-3-yl)isoquinolin-3-yl)-2-(piperidin-4-yl)oxazole-4-carboxamide], the EC50 in assay [1] (Homo sapiens) was 4010 nM; in assay [2] (Homo sapiens, PBMC), 9000 nM; in assay [3] (setting [7]), 306 nM; in assay [4] (Homo sapiens, 96 h), 5880 nM; in assay [5] (setting [8]), greater than 10000 nM; in assay [6] (Homo sapiens, Fibroblast, 96 h) it was 1510 nM.

On to `CN1CCC(Nc2cncc(-c3ccc4cnc(NC(=O)c5ccc(F)cc5)cc4c3)n2)CC1` [Compound 115, 4-fluoro-N-(6-(6-((1-methylpiperidin-4-yl)amino)pyrazin-2-yl)isoquinolin-3-yl)benzamide], for which the concentration for a half-maximal effect (EC50) was 39 nM in assay [1] (Homo sapiens); 3190 nM in assay [2] (Homo sapiens, PBMC); 1 nM in assay [3]; 5120 nM in assay [4] (Homo sapiens, 96 h); 8480 nM in assay [5]; greater than 10000 nM in assay [6] (Homo sapiens, Fibroblast, 96 h). In addition, the inhibition at 10 µM in assay [6] (Homo sapiens, Fibroblast) worked out at 12.2%.

Take `CC(C)Nc1cncc(-c2ccc3cnc(NC(=O)C4CCN(CCF)CC4)cc3c2)n1` [Compound 89, 1-(2-Fluoroethyl)-N-(6-(6-(isopropylamino)pyrazin-2-yl)isoquinolin-3-yl) piperidine-4-carboxamide]: the EC50 in assay [1] was 178 nM; in assay [2], 390 nM; in assay [4], 447 nM; in assay [5] (setting [8]), 14 nM; in assay [6], 3910 nM.

Consider `CC(C)CCN1CCC(C(=O)Nc2cc3cc(-c4cncc(NC(C)C)n4)ccc3cn2)CC1` [Compound 91, 1-Isopentyl-N-(6-(6-(isopropylamino)pyrazin-2-yl)isoquinolin-3-yl) piperidine-4-carboxamide], for which the EC50 was found to be 718 nM in assay [1], 446 nM in assay [2], 6890 nM in assay [4] and 19 nM in assay [6].

The EC50 is the concentration giving half of the maximal effect. Usually inhibition stands for the share of the control response that was lost under treatment.
